Data reported in patent US20260042764A1, “COMPOSITIONS AND METHODS FOR INHIBITION OF KRAS” (TheRas, Inc., priority 2022, published 2026).

Each compound was assayed against T1, Avi-KRAS G12D (1-169) GppNHp/RAF1 RBD-3xFLAG (52-151) (Homo sapiens, UniProt P01116, G12D) (assay: Raf1-KRAS G12D-GppNHP disruption HTRF assay (Biological Example 1)). Details: KRAS G12D-GppNHp/RAF1 RBD HTRF.
T1 construct: Avi-KRAS G12D (1-169)
Assay type: binding
In short: (§1)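 Measured with a KRAS/RAF1 HTRF assay at pH 7.5 in 10% DMSO, with two 1 h room-temperature incubations with shaking.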

T1 sequence (P01116 1-169 isoform P01116-2 G12D): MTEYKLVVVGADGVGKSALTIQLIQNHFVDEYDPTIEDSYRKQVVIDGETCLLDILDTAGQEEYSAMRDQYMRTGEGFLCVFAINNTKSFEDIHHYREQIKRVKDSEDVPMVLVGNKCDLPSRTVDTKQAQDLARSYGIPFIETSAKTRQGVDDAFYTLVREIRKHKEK

| Compound | IC50 |
| --- | --- |
| C[C@H]1C[C@H](N(c2nc(OC[C@@]34CCCN3C[C@H](F)C4)nc3c(F)c(-c4ccc(F)c5sc(N)c(C#N)c45)c(C(F)(F)F)cc23)C2CC2)CN1C(=O)C1CC1 [Compound 474] | 100 to 1000 nM |
| CCN(c1nc(OC[C@@]23CCCN2C[C@H](F)C3)nc2c(F)c(-c3ccc(F)c4sc(N)c(C#N)c34)c(C(F)(F)F)cc12)[C@@H]1CN(C(=O)C(C)C)C[C@@H]1F [Compound 475] | 100 to 1000 nM |
| CN(c1nc(OC[C@@]23CCCN2C[C@H](F)C3)nc2c(F)c(-c3ccc(F)c4sc(N)c(C#N)c34)c(C(F)(F)F)cc12)[C@@H]1C[C@H]2COC(=O)N2C1 [Compound 476] | 100 to 1000 nM |
| CCN(c1nc(OC[C@@]23CCCN2C[C@H](F)C3)nc2c(F)c(-c3ccc(F)c4sc(N)c(C#N)c34)c(C(F)(F)F)cc12)[C@@H]1CCS(=O)(=O)C1 [Compound 477] | 100 to 1000 nM |
| CN1C[C@@H](N(C)c2nc(OC[C@@]34CCCN3C[C@H](F)C4)nc3c(F)c(-c4ccc(F)c5sc(N)c(C#N)c45)c(C(F)(F)F)cc23)CCC1=O [Compound 478] | 100 to 1000 nM |
| CN(c1nc(OC[C@@]23CCCN2C[C@H](F)C3)nc2c(F)c(-c3ccc(F)c4sc(N)c(C#N)c34)c(C(F)(F)F)cc12)[C@@H]1CC(=O)N2CCC[C@H]12 [Compound 479] | 100 to 1000 nM |

Each compound was assayed against T2, Avi-KRAS G12R (1-169) GppNHp/RAF1 RBD-3xFLAG (52-151) (Homo sapiens, UniProt P01116, G12R) (assay: Raf1-KRAS G12R-GppNHP disruption HTRF assay (Biological Example 1)). Details: KRAS G12R-GppNHp/RAF1 RBD HTRF.
T2 construct: Avi-KRAS G12R (1-169)
Assay type: binding
In short: as §1

T2 sequence (P01116 1-169 isoform P01116-2 G12R): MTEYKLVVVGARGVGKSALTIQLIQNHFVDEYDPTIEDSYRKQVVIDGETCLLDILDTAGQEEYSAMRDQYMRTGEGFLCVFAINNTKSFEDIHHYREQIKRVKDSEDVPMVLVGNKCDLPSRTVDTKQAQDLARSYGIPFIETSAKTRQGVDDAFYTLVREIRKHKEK

| Compound | IC50 |
| --- | --- |
| C[C@H]1C[C@H](N(c2nc(OC[C@@]34CCCN3C[C@H](F)C4)nc3c(F)c(-c4ccc(F)c5sc(N)c(C#N)c45)c(C(F)(F)F)cc23)C2CC2)CN1C(=O)C1CC1 [Compound 474] | 100 to 1000 nM |
| CCN(c1nc(OC[C@@]23CCCN2C[C@H](F)C3)nc2c(F)c(-c3ccc(F)c4sc(N)c(C#N)c34)c(C(F)(F)F)cc12)[C@@H]1CN(C(=O)C(C)C)C[C@@H]1F [Compound 475] | 100 to 1000 nM |
| CN(c1nc(OC[C@@]23CCCN2C[C@H](F)C3)nc2c(F)c(-c3ccc(F)c4sc(N)c(C#N)c34)c(C(F)(F)F)cc12)[C@@H]1C[C@H]2COC(=O)N2C1 [Compound 476] | 100 to 1000 nM |
| CCN(c1nc(OC[C@@]23CCCN2C[C@H](F)C3)nc2c(F)c(-c3ccc(F)c4sc(N)c(C#N)c34)c(C(F)(F)F)cc12)[C@@H]1CCS(=O)(=O)C1 [Compound 477] | 100 to 1000 nM |
| CN1C[C@@H](N(C)c2nc(OC[C@@]34CCCN3C[C@H](F)C4)nc3c(F)c(-c4ccc(F)c5sc(N)c(C#N)c45)c(C(F)(F)F)cc23)CCC1=O [Compound 478] | 1000 to 10000 nM |
| CN(c1nc(OC[C@@]23CCCN2C[C@H](F)C3)nc2c(F)c(-c3ccc(F)c4sc(N)c(C#N)c34)c(C(F)(F)F)cc12)[C@@H]1CC(=O)N2CCC[C@H]12 [Compound 479] | 100 to 1000 nM |

Each compound was assayed against T3, Avi-KRAS G12V (1-169) GppNHp/RAF1 RBD-3xFLAG (52-151) (Homo sapiens, UniProt P01116, G12V) (assay: Raf1-KRAS G12V-GppNHP disruption HTRF assay (Biological Example 1)). Details: KRAS G12V-GppNHp/RAF1 RBD HTRF.
T3 construct: Avi-KRAS G12V (1-169)
Assay type: binding
In short: as §1

T3 sequence (P01116 1-169 isoform P01116-2 G12V): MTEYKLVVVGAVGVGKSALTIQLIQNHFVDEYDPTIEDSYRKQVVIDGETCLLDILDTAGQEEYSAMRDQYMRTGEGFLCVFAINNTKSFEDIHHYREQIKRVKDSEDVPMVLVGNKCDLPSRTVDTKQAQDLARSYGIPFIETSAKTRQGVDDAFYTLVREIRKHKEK

| Compound | IC50 |
| --- | --- |
| C[C@H]1C[C@H](N(c2nc(OC[C@@]34CCCN3C[C@H](F)C4)nc3c(F)c(-c4ccc(F)c5sc(N)c(C#N)c45)c(C(F)(F)F)cc23)C2CC2)CN1C(=O)C1CC1 [Compound 474] | 100 to 1000 nM |
| CCN(c1nc(OC[C@@]23CCCN2C[C@H](F)C3)nc2c(F)c(-c3ccc(F)c4sc(N)c(C#N)c34)c(C(F)(F)F)cc12)[C@@H]1CN(C(=O)C(C)C)C[C@@H]1F [Compound 475] | 100 to 1000 nM |
| CN(c1nc(OC[C@@]23CCCN2C[C@H](F)C3)nc2c(F)c(-c3ccc(F)c4sc(N)c(C#N)c34)c(C(F)(F)F)cc12)[C@@H]1C[C@H]2COC(=O)N2C1 [Compound 476] | 100 to 1000 nM |
| CCN(c1nc(OC[C@@]23CCCN2C[C@H](F)C3)nc2c(F)c(-c3ccc(F)c4sc(N)c(C#N)c34)c(C(F)(F)F)cc12)[C@@H]1CCS(=O)(=O)C1 [Compound 477] | 100 to 1000 nM |
| CN1C[C@@H](N(C)c2nc(OC[C@@]34CCCN3C[C@H](F)C4)nc3c(F)c(-c4ccc(F)c5sc(N)c(C#N)c45)c(C(F)(F)F)cc23)CCC1=O [Compound 478] | 1000 to 10000 nM |
| CN(c1nc(OC[C@@]23CCCN2C[C@H](F)C3)nc2c(F)c(-c3ccc(F)c4sc(N)c(C#N)c34)c(C(F)(F)F)cc12)[C@@H]1CC(=O)N2CCC[C@H]12 [Compound 479] | 100 to 1000 nM |

These compounds were tested against T4, Avi-KRAS WT (1-169) GppNHp/RAF1 RBD-3xFLAG (52-151) (Homo sapiens, UniProt P01116) (assay: Raf1-KRAS WT-GppNHP disruption HTRF assay (Biological Example 1)). Details: KRAS WT-GppNHp/RAF1 RBD HTRF.
T4 construct: Avi-KRAS WT (1-169)
Assay type: binding
In short: as §1

T4 sequence (P01116 1-169 isoform P01116-2): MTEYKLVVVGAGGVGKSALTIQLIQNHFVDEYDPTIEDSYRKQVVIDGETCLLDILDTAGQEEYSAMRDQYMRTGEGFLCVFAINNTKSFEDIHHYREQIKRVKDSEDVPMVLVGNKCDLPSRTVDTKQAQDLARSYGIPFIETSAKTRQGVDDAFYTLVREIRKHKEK

| Compound | IC50 |
| --- | --- |
| C[C@H]1C[C@H](N(c2nc(OC[C@@]34CCCN3C[C@H](F)C4)nc3c(F)c(-c4ccc(F)c5sc(N)c(C#N)c45)c(C(F)(F)F)cc23)C2CC2)CN1C(=O)C1CC1 [Compound 474] | 100 to 1000 nM |
| CCN(c1nc(OC[C@@]23CCCN2C[C@H](F)C3)nc2c(F)c(-c3ccc(F)c4sc(N)c(C#N)c34)c(C(F)(F)F)cc12)[C@@H]1CN(C(=O)C(C)C)C[C@@H]1F [Compound 475] | 100 to 1000 nM |
| CN(c1nc(OC[C@@]23CCCN2C[C@H](F)C3)nc2c(F)c(-c3ccc(F)c4sc(N)c(C#N)c34)c(C(F)(F)F)cc12)[C@@H]1C[C@H]2COC(=O)N2C1 [Compound 476] | 100 to 1000 nM |
| CCN(c1nc(OC[C@@]23CCCN2C[C@H](F)C3)nc2c(F)c(-c3ccc(F)c4sc(N)c(C#N)c34)c(C(F)(F)F)cc12)[C@@H]1CCS(=O)(=O)C1 [Compound 477] | 100 to 1000 nM |
| CN1C[C@@H](N(C)c2nc(OC[C@@]34CCCN3C[C@H](F)C4)nc3c(F)c(-c4ccc(F)c5sc(N)c(C#N)c45)c(C(F)(F)F)cc23)CCC1=O [Compound 478] | 100 to 1000 nM |
| CN(c1nc(OC[C@@]23CCCN2C[C@H](F)C3)nc2c(F)c(-c3ccc(F)c4sc(N)c(C#N)c34)c(C(F)(F)F)cc12)[C@@H]1CC(=O)N2CCC[C@H]12 [Compound 479] | 100 to 1000 nM |

The compounds below were run on GP2d cells (KRAS G12D) (assay: Cell-based pERK HTRF assay in GP2d cell (Biological Example 2)). Details: GP2d, GP2d (KRAS G12D) cells, pERK HTRF.
In short: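 Phospho-ERK is measured by HTRF following a 60 min compound exposure at 0.25% DMSO, with a 9-point half-log curve topping at 1 μM or 100 nM.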

| Compound | IC50 |
| --- | --- |
| C[C@H]1C[C@H](N(c2nc(OC[C@@]34CCCN3C[C@H](F)C4)nc3c(F)c(-c4ccc(F)c5sc(N)c(C#N)c45)c(C(F)(F)F)cc23)C2CC2)CN1C(=O)C1CC1 [Compound 474] | < 100 nM |
| CCN(c1nc(OC[C@@]23CCCN2C[C@H](F)C3)nc2c(F)c(-c3ccc(F)c4sc(N)c(C#N)c34)c(C(F)(F)F)cc12)[C@@H]1CN(C(=O)C(C)C)C[C@@H]1F [Compound 475] | < 100 nM |
| CN(c1nc(OC[C@@]23CCCN2C[C@H](F)C3)nc2c(F)c(-c3ccc(F)c4sc(N)c(C#N)c34)c(C(F)(F)F)cc12)[C@@H]1C[C@H]2COC(=O)N2C1 [Compound 476] | < 100 nM |
| CCN(c1nc(OC[C@@]23CCCN2C[C@H](F)C3)nc2c(F)c(-c3ccc(F)c4sc(N)c(C#N)c34)c(C(F)(F)F)cc12)[C@@H]1CCS(=O)(=O)C1 [Compound 477] | < 100 nM |
| CN1C[C@@H](N(C)c2nc(OC[C@@]34CCCN3C[C@H](F)C4)nc3c(F)c(-c4ccc(F)c5sc(N)c(C#N)c45)c(C(F)(F)F)cc23)CCC1=O [Compound 478] | < 100 nM |
| CN(c1nc(OC[C@@]23CCCN2C[C@H](F)C3)nc2c(F)c(-c3ccc(F)c4sc(N)c(C#N)c34)c(C(F)(F)F)cc12)[C@@H]1CC(=O)N2CCC[C@H]12 [Compound 479] | < 100 nM |

The compounds below were run on SW620 cells (KRAS G12V) (assay: Cell-based pERK HTRF assay in SW620 cell (Biological Example 4)). Details: Homo sapiens, SW-620, SW620 (KRAS G12V) cells, pERK HTRF.
In short: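 This assay measures inhibition of ERK phosphorylation downstream of KRAS G12V in intact SW620 cells. Compounds are applied for 4 h over nine half-log concentrations starting at 1 μM, and pERK is quantified by HTRF.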

| Compound | IC50 |
| --- | --- |
| C[C@H]1C[C@H](N(c2nc(OC[C@@]34CCCN3C[C@H](F)C4)nc3c(F)c(-c4ccc(F)c5sc(N)c(C#N)c45)c(C(F)(F)F)cc23)C2CC2)CN1C(=O)C1CC1 [Compound 474] | < 100 nM |
| CCN(c1nc(OC[C@@]23CCCN2C[C@H](F)C3)nc2c(F)c(-c3ccc(F)c4sc(N)c(C#N)c34)c(C(F)(F)F)cc12)[C@@H]1CN(C(=O)C(C)C)C[C@@H]1F [Compound 475] | < 100 nM |
| CN(c1nc(OC[C@@]23CCCN2C[C@H](F)C3)nc2c(F)c(-c3ccc(F)c4sc(N)c(C#N)c34)c(C(F)(F)F)cc12)[C@@H]1C[C@H]2COC(=O)N2C1 [Compound 476] | < 100 nM |
| CCN(c1nc(OC[C@@]23CCCN2C[C@H](F)C3)nc2c(F)c(-c3ccc(F)c4sc(N)c(C#N)c34)c(C(F)(F)F)cc12)[C@@H]1CCS(=O)(=O)C1 [Compound 477] | < 100 nM |
| CN1C[C@@H](N(C)c2nc(OC[C@@]34CCCN3C[C@H](F)C4)nc3c(F)c(-c4ccc(F)c5sc(N)c(C#N)c45)c(C(F)(F)F)cc23)CCC1=O [Compound 478] | < 100 nM |
| CN(c1nc(OC[C@@]23CCCN2C[C@H](F)C3)nc2c(F)c(-c3ccc(F)c4sc(N)c(C#N)c34)c(C(F)(F)F)cc12)[C@@H]1CC(=O)N2CCC[C@H]12 [Compound 479] | < 100 nM |
